Data published in paper PMC8639922, “KSHV transactivator-derived small peptide traps coactivators to attenuate MYC and inhibits leukemia and lymphoma cell growth” (Communications Biology, 2021).
Square brackets hold non-standard residues; d marks the D form. Peptide text beside a SMILES is read from it. Orn = NCCC[C@H](N)C(=O)O; βAla = NCCC(=O)O

Assay type: in vivo, BALB/c mice
Details: BALB/c female, 10 mg/kg i.p., 5 day-on 2 day-off, two weeks, average n=5/group
Description: Based on strong and selective MYC down-regulation and cell killing activity of cancer cells in vitro, we next studied the therapeutic potential of VGN50 by examining the efficacy of cancer cell killing over toxicities to mice in a PEL xenograft model with BCBL-1 cells. Pilot studies determined that the peptide was well-tolerated in immunocompetent mice when administered as 10 mg/kg peptide via intraperitoneal (i.p.) injection with a 5-day-on 2-day-off schedule for 2 weeks, as shown by no notable changes in body weight, complete blood counts, and serum biochemical properties (Supplementary Fig. 5). Based on the drug schedule, we examined the effects of the peptide on xenograft PEL cell growth. In this established model, BCBL-1 cells grow in the peritoneal cavity resulting in the accumulation of ascites, which can be measured as a body weight gain that corresponds to the volume of ascites. We inoculated male NRG mice with 2 × 10^7 BCBL-1 cells via i.p. injection followed by injections of VGN50 (10 mg/kg), mutant control peptide or PBS, daily for 10 days starting from 2 days after (day 0) tumor inoculation. All mice in the control PBS-treated groups reached the humane endpoint by 10 days (Fig. 6a). […] At the termination point, tumor growth was also validated by flow cytometry analysis of PEL cells in ascites fluid (Fig. 6b, c). […] A similar phenotype is reported in MYC knock-out cardiac myocytes and keratinocytes[56],[57].
PBS VGN50 Mutant Normal ranges […]
Ext ended Dat a Fi gure 5. BALB/ c mi ce ( 8 weeks ol d, female, n=5/ gr oup) wer e i nj ect ed wi t h 10mg/ kg of VGN50 or mut ant pept i de i n 200 uL i.p. wi t h a 5 day-on 2 day off schedul e f or t wo week s . Body wei ght changes wer e measur ed dai l y ( a) . At t he end of t he exper i ment , f r esh bl ood and ser um col l ect ed wer e subj ect ed f or complet e blood count s and serum biochemical pr oper t i es, r espect i vel y ( b) .
(1 picture or pasted object on this page, not shown here)

CC(C)C[C@H](NC(=O)CCNC(=O)[C@H](CCCNC(=N)N)NC(=O)[C@H](CCCNC(=N)N)NC(=O)[C@H](CCCNC(=N)N)NC(=O)[C@H](CCCN)NC(=O)[C@H](CCCNC(=N)N)NC(=O)[C@H](CCCNC(=N)N)NC(=O)[C@H](CCCCN)NC(=O)[C@H](CCCCN)NC(=O)[C@H](N)CCCNC(=N)N)C(=O)N[C@@H](CO)C(=O)N[C@@H](CO)C(=O)N[C@@H](C)C(=O)N[C@@H](C)C(=O)N[C@@H](C)C(=O)NCC(=O)N[C@@H](CC(C)C)C(=O)N[C@@H](Cc1ccc(O)cc1)C(=O)N[C@@H](CCC(N)=O)C(=O)N[C@@H](CC(C)C)C(=O)N[C@@H](CC(=O)O)C(=O)N[C@H](C(=O)O)[C@@H](C)O [Mt-P] (H-[dR]KKRR[Orn]RRR[βAla]LSSAAAGLYQLDT-OH; N-terminus and C-terminus assumed)
Absolute Basophil cells (normal 0.0-0.1): 0.06 K/ul | Absolute Eosinophil cells (normal 0.0-0.1): 0.14 K/ul | Total Bilirubin (normal 0.0-0.2): 0.05 mg/dL | Creatinine (normal 0.0-0.3): 0.20 mg/dL | Basophil % (normal 0.0-0.5): 0.70% | Eosinophil % (normal 0.0-0.8): 2.14% | Alanine Transaminase (normal 0-403): 82.85 U/L | Aspartate Transaminase (normal 0-552): 651.13 U/L | Absolute Monocyte cells (normal 0.2-1.0): 0.43 K/ul | Absolute Neutrophil cells (normal 1.0-3.7): 1.12 K/ul | Monocyte % (normal 2.5-7.5): 5.52% | Albumin (normal 2.9-4.0): 3.67 g/dL | Absolute Lymphocyte cells (normal 4.3-10.6): 2.54 K/ul | Total Protein (normal 4.7-6.1): 4.81 g/dL | MPV (normal 5.0-20.0): 3.05 fL | WBC (normal 5.1-14.7): 4.22 K/ul | Potassium (normal 6.9-10.0): 6.90 mmol/L | Phosphorus (normal 7.5-10.7): 7.46 mg/dL | Calcium (normal 9.6-11-5): 9.39 mg/dL | Hemoglobin (normal 11.7-16.2): 7.07 g/dL | RDW % (normal 12.4-27.0): 10.08% | Neutrophil % (normal 12.5-31.2): 16.70% | MCH (normal 13.3-16.7): 7.62 pg | Blood Urea Nitrogen (normal 15.2-34.7): 20.03 mg/dL | MCHC (normal 27.6-32.9): 13.18 g/dL | Hematocrit % (normal 38.3-54.0): 27.72% | MCV (normal 45.3-53.6): 29.04 fL | Alkaline Phosphatase (normal 49-172): 129.20 U/L | Lymphocyte % (normal 62.9-82.7): 31.21% | Chloride (normal 105-118): 112.13 mmol/L | Glucose (normal 130-254): 194.73 mg/dL | Sodium (normal 150-160): 145.25 mmol/L | Platelets (normal 574-1079): 333.29 K/uL | Amylase (normal 2463-6660): 1624.05 U/L
